“Also recorded” adds a separate entry of the source. Where no end group is shown, it is not given here.
How the values were obtained:
[1] = system: human white adipose tissue (WAT) explants; assay: NEFA release in human WAT explants ± propranolol; type: cell-based
Method: (§1) Adipose tissue biopsies used for stimulation of lipolysis were taken from the subcutaneous abdominal region by needle aspiration as previously described. The experimental group consisted of 6 non-diabetic females with a normal/preobese BMI (average BMI = 25.5). All biopsies were transported in sterile containers to the laboratory within 30 min after removal. The biopsies were washed repeatedly with isotonic saline and were used for subsequent culture.
(§2) Induction of NEFA and glycerol release in adipocytes and intact adipose tissue explants was used as a measure of lipolysis with β-adrenergic agonist isoproterenol as a positive control as previously described. When using propranolol, 10 μM was used as final concentration. 250 mg of human adipose tissue was placed in 15 mL tubes, immediately covered with 2.5 mL of preheated (37 °C) hyclone media and preincubated for 24 h. After 24 h, the media was replenished and explants were stimulated with the indicated melanocortin peptide for 3 h before harvesting the supernatant for NEFA and glycerol analysis. In house testing has shown no indications of hypoxia when stimulating explants (data not shown). All test compounds were dissolved to 4 mM in DMSO (highest DMSO concentration of 0.25 % in the assay) and diluted in DPBS buffer + 2 % bovine serum albumin (BSA). Human subcutaneous adipocytes purchased from Zenbio Inc., were used in stimulation of lipolysis (n = 4). These adipocytes have been isolated from obese males. When receiving the cells (and partially during transportation), the cells was differentiated from a pre-state to a mature state before the cells are used for experiments. The cells were handled according to the description from ZenBio Inc. Two hours was chosen as the optimal incubation time span for primary adipocytes, based on similar experiments in other species. […] Measures of melanocortin-stimulated glycerol release were added in explant lipolysis studies.
(§3) Data from the NEFA and the glycerol assay were obtained using the protocol supplied by the manufactures. Released NEFAs were analyzed in Graphpad Prism and one-tailed t test was used to calculate statistical significance between 2 groups (*p < 0.05, **p < 0.01, ***p < 0.001, no * indicates insignificance). Ki values in bindings studies were calculated as Ki = IC50/1 + [radioligand]/Kd. Data from binding studies was analyzed in Graphpad Prism.

[2] = system: mesenchymal stem cell-derived adipocytes; intact adipose tissue explants; settings: mesenchymal stem cell-derived adipocytes or intact adipose tissue explants; ref [52] Hoch et al.; cited from earlier work
Text: (§4) The lack of lipolytic response seen in adipocytes is supported by previous studies by Hoch et al. [[5 ...

[3] = system: mesenchymal stem cell-derived adipocytes; settings: ref [52] Hoch et al.; cited from earlier work
Text: as §4

[4] = system: intact human white adipose tissue explants; assay: Glycerol release in human WAT explants (lipolysis); type: cell-based; settings: subcutaneous explants from non-obese females, 100 nM–10 μM, 3 h; mean of 2 independent experiments in triplicate wells
Method: as §1
Induction of NEFA and glycerol release in adipocytes and intact adipose tissue explants was used as a measure of lipolysis with β-adrenergic agonist isoproterenol as a positive control as previously described. When using propranolol, 10 μM was used as final concentration. 250 mg of human adipose tissue was placed in 15 mL tubes, immediately covered with 2.5 mL of preheated (37 °C) hyclone media and preincubated for 24 h. After 24 h, the media was replenished and explants were stimulated with the indicated melanocortin peptide for 3 h before harvesting the supernatant for NEFA and glycerol analysis. In house testing has shown no indications of hypoxia when stimulating explants (data not shown). All test compounds were dissolved to 4 mM in DMSO (highest DMSO concentration of 0.25 % in the assay) and diluted in DPBS buffer + 2 % bovine serum albumin (BSA). Human subcutaneous adipocytes purchased from Zenbio Inc., were used in stimulation of lipolysis (n = 4). These adipocytes have been isolated from obese males. When receiving the cells (and partially during transportation), the cells was differentiated from a pre-state to a mature state before the cells are used for experiments. […]
as §3

[5] = system: human subcutaneous adipocytes; assay: NEFA release in differentiated human subcutaneous adipocytes; type: cell-based; settings: for stimulation of NEFA release (in words): human subcutaneous adipocytes (ZenBio, obese males), 1 pM–10 μM, n = 4
Method: as §2, §3

MC4R over MC3R = settings: factor; ref [46] Greenfield et al.; cited from earlier work
MC4R over MC1R = settings: factor; ref [46] Greenfield et al.; cited from earlier work
human MCRs = assay: Binding rank order across human MCRs; settings: order of affinity
Method: (§5) The human MC1R, MC3R, MC4R and MC5R were cloned by PCR and subcloned into the pcDNA3 expression vector, as previously described by Conde-Frieboes et al.. Cells stably expressing the human MCRs were generated by transfecting the expression vector into BHK570 cells (ATTC) and using 1 mg/mL G418 to select for stable clones. The stable cell lines were cultured in DMEM with glutamax, 10 % FCS, 1 % pen/strep, and 1 mg/mL G418 at 37 °C and 5 % CO2. […] Test compounds were dissolved to a 4 mM concentration in DMSO and diluted in a receptor specific binding buffer. […] A filtration system was employed to separate bound from unbound radioligand.
(§6) Data analysis and statistics

[6] = system: intact human white adipose tissue explants; assay: NEFA release in human WAT explants (lipolysis); type: cell-based; settings: for increase in NEFA release compared to vehicle: 100 nM, 3 h stimulation, mean of 6 (α-MSH 3) independent experiments in triplicate wells; for increase in NEFA release compared to vehicle / stimulation of NEFA release / lipolysis (in words): subcutaneous explants from non-obese females; for Emax of lipolysis compared to isoproterenol (in words): intact human WAT explants; for stimulation of NEFA release / lipolysis (in words): 100 nM–10 μM, 3 h, one-tailed t test vs. vehicle
Method: as §1, §2, §3

rabbit adipocytes = settings: ref [39] Richter et al.; cited from earlier work
Text: MC5R is extensively distributed in the periphery, and is reported to regulate sebaceous gland secretion and fatty acid oxidation in skeletal muscle. The melanocortin system has a well-established lipolytic effect in rodent adipose tissues. Studies in murine primary adipocytes and differentiated 3T3-L1 adipocytes show a direct lipolytic effect of MC2R and MC5R when stimulated by various endogenous and synthetic melanocortin agonists.

primary mouse adipocytes = settings: mediated by MC2R and MC5R, ref [35], [37], [38]; cited from earlier work
Text: as §4

[7] = system: adipocytes or intact human adipose tissue; settings: own finding "supported by other studies", ref [51], [52]; cited from earlier work
Text: (§7) ACTH is a larger peptide than both α-MSH and the synthetic melanocortin compounds used in this study.

[8] = system: adipocytes isolated from subcutaneous adipose tissue; settings: adipocytes isolated from subcutaneous adipose tissue of non-diabetic human; ref [53] Xue et al.; cited from earlier work
Text: as §7

MC5R = settings: agonist; ref [47]; cited from earlier work
MC3R = settings: antagonist; ref [47]; cited from earlier work
hMC1R = target: T1, hMC1R (Homo sapiens, UniProt Q01726); assay: Competition binding of 125I-NDP-α-MSH to membranes of BHK570 cells expressing hMC1R; settings: competition with fixed 125I-NDP-α-MSH, test compound 1 pM–10 μM, filtration, average of repeated independent experiments ± SEM, n = 3 (α-MSH n = 18)
T1 construct: expressed in transfected cells
Method: as §5, §6

WAT = system: WAT; parameters: method as in earlier work; settings: intranasal administration; ref [50] Wellhöner et al.; cited from earlier work
Text: However, it should be taken into account, that there may be downstream MCR mechanisms of propranolol that are unknown, which is a precaution using this antagonist. Depleting the explants with reserpine before stimulation could add additional confidence to the ...

T1 sequence (Q01726 whole entry): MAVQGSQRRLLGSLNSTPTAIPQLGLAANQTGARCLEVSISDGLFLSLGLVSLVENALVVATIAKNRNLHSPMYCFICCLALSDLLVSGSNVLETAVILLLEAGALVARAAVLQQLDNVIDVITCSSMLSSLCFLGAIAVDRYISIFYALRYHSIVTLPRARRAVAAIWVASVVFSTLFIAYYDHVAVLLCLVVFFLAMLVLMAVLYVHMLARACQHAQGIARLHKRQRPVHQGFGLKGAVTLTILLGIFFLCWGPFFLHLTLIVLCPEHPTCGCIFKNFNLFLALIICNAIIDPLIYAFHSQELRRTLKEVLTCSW

## CC(C)NCC(O)COc1cccc2ccccc12 (stereo not drawn) [propranolol]
[1]; 10 μM propranolol + LY2112688 (100 nM–10 μM), female human subcutaneous explants, 3 independent experiments in triplicate wells
  decrease of LY2112688-stimulated NEFA release (in words): did not significantly decrease the release of NEFA
[1]; 10 μM propranolol + PG-901 (100 nM–10 μM), female human subcutaneous explants, 3 independent experiments in triplicate wells
  decrease of PG-901-stimulated NEFA release (in words): significantly decreased the release of NEFA
[1]; 10 μM propranolol + isoproterenol, female human subcutaneous explants, 3 independent experiments in triplicate wells
  decrease of isoproterenol-stimulated NEFA release (in words): significantly decreased the release of NEFA
[1]; propranolol co-incubation, MC4R/MC5R-mediated lipolysis, overview figure
  inhibition of NEFA release on co-incubation (in words): inhibits NEFA release

## NDP-α-MSH
[2]
  effect on lipolysis (in words): did not find an effect on lipolysis
[3]
  cAMP response (in words): weak cAMP response

## CC(=O)N[C@H](CCCNC(=N)N)C(=O)N[C@H]1CSSC[C@@H](C(N)=O)NC(=O)[C@H](Cc2c[nH]c3ccccc23)NC(=O)[C@H](CCCNC(=N)N)NC(=O)[C@@H](Cc2ccccc2)NC(=O)[C@H](Cc2c[nH]cn2)NC(=O)[C@H](CCC(=O)O)NC1=O [LY2112688]
[4]
  stimulation of glycerol release (in words): stimulated release of glycerol
[5]
  stimulation of NEFA release (in words): failed to stimulate NEFA release
MC4R over MC3R
  increased affinity for MC4R over MC3R: more than 100
MC4R over MC1R
  increased affinity for MC4R over MC1R: more than 30
Human MCRs
  binding rank order: MC4R > MC3R > MC1R
[6]
  increase in NEFA release compared to vehicle: 46%
  Emax of lipolysis compared to isoproterenol (in words): relatively lower Emax
  stimulation of NEFA release / lipolysis (in words): significantly stimulated lipolysis; also recorded: stimulated a low, though significant, release of NEFA; also recorded: significantly stimulate release of NEFA

## SYSMEHFRWGKPVGKKRRPVKVYPNGAEDESAEAFPLEF [ACTH]
[4]
  stimulation of glycerol release (in words): failed to stimulate NEFA and glycerol release
[5]; adipocytes
  lipolytic capacity (in words): no lipolytic capacity
[5]
  stimulation of NEFA release (in words): failed to stimulate NEFA release
Rabbit adipocytes
  effect on lipolysis (in words): direct effect
Primary mouse adipocytes
  lipolytic capacity (in words): lipolytic capacity
Human MCRs
  binding rank order: MC1R > MC4R > MC3R > MC5R
[7]
  lipolytic capacity (in words): no lipolytic capacity
[8]
  stimulation of lipolysis (in words): stimulated lipolysis
[6]; intact human adipose tissue
  lipolytic capacity (in words): no lipolytic capacity
[6]
  stimulation of NEFA release / lipolysis (in words): failed to stimulate NEFA

## CCCC[C@H](NC(C)=O)C(=O)N[C@H]1CC(=O)NCCCC[C@@H](C(N)=O)NC(=O)[C@H](Cc2c[nH]c3ccccc23)NC(=O)[C@H](CCCNC(=N)N)NC(=O)[C@@H](Cc2ccc3ccccc3c2)NC(=O)[C@@H]2CCCN2C1=O [PG-901]
[4]
  stimulation of glycerol release (in words): stimulated release of glycerol
[5]
  stimulation of NEFA release (in words): failed to stimulate NEFA release
MC5R
  binding to MC5R (in words): high affinity
MC3R
  binding to MC3R (in words): high affinity
hMC1R
  Ki: 2700 ± 153 nM
[6]
  increase in NEFA release compared to vehicle: 38%
  Emax of lipolysis compared to isoproterenol (in words): relatively lower Emax
  stimulation of NEFA release / lipolysis (in words): significantly stimulated lipolysis; also recorded: stimulated a low, though significant, release of NEFA; also recorded: significantly stimulate release of NEFA

## MSH/ACTH(4-10): intranasally administered melanocortin fragment in Wellhöner et al. (MEHFRWG; Corticotropin; UniProt P01189 141-147, looked up, fragment)
WAT
  glycerol concentrations in WAT (in words): increased glycerol concentrations in WAT

## CC(C)NCC(O)c1ccc(O)c(O)c1 (stereo not drawn) [isoproterenol]
[5]
  stimulation of NEFA release (in words): potent release of NEFA
[6]
  increase in NEFA release compared to vehicle: 114%
  stimulation of NEFA release / lipolysis (in words): potent release of NEFA

Source: article PMC4604100, “Melanocortin agonists stimulate lipolysis in human adipose tissue explants but not in adipocytes” (BMC Research Notes, 2015)
